Test results from US10457642B2, “211-astatine containing radiotherapeutics for the treatment of cancer” (The Trustees of The University of Pennsylvania, priority 2015, dated 2019).
“And” between values parts separate entries of the source, which are not always exact repeats. Equal values may be shown once. Read-outs that look alike come from different tables or passages of the source.

Experiments:
[1] = in vivo; cited from earlier work
sigma-2 receptor = target: T1, sigma-2 receptor (Homo sapiens, UniProt Q5BJF2); experiment: In vitro live cellular binding studies in MDA-MB-231 breast cancer cells; conditions: MDA-MB-231 cells
T1 construct: was evaluated in MDA-MB-231 breast cancer cells (ATCC-HTB-26) known to have high sigma-2 receptor density; host or cells: MDA-MB-231 (living, plated cells)
T1 sequence (Q5BJF2 whole entry): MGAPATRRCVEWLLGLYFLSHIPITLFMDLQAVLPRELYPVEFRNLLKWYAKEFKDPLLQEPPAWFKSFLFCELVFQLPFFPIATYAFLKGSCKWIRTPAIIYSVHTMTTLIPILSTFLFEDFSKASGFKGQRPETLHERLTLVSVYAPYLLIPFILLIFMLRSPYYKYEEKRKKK
Method: MDA-MB-231 were cultured in Minimum Essential Media (MEM) with added nutrients, 10% fetal bovine serum (FBS) and 1% penicillin/streptomycin at 5% CO2 and 37° C. Twenty-four hours before assay cells were plated at 50,000 cell/well in 96-well format. Two solutions of freshly synthesized radioligand were diluted to a concentration of approximately 2,000 cpm/μL in phosphate buffered saline with calcium and magnesium (PBS w/ Ca^2+ and Mg^2+), with and without non-radioactive 100 μM of the standard to determine non-specific binding. […] Total volume of treatment in each well was 50 μL. PBS w/ Ca^2+ and Mg^2+ without substrate was added to the last row of wells and was used for protein quantification at the end of the experiment. Treatment was removed at time points over the course of 2 h (n=4/time point). At each time of treatment removal, wells were washed with PBS×3. At the end of the experiment wells were counted on an automatic gamma counter using a custom protocol with an energy window of 70-110 KeV (Wizard™ 2470, Perkin Elmer, Waltham Mass.). Protein quantification was performed using a modified Lowry method. Independent experiments were repeated in triplicate. One-phase association kinetics were modeled using Prism™ software version 6.0 (La Holla, Calif.).

[2] = Method: Tumors were grown by subcutaneously injecting 1×10^6 EMT-6 mouse breast cancer cells (ATCC #CRL-2755) into the flanks of female BALB/c mice (Taconic). Tumors were an appropriate size of approximately 200 mm^3 after 14 days of growth. On the day of experiment 10 μCi of newly synthesized ^211At—N-(6,7-dimethoxy-3,4-dihydroisoquinolin-2(1H)-yl)butyl)-2,3-dimethoxybenzamide in saline (ethanol<5%) was administered intravenously to mice under isoflurane anesthesia. Mice were sacrificed by cervical dislocation followed by immediate cardiac puncture post administration at time points of 5 min, 1, 2, 4, 8, and 24 h (n=4 mice/time point). Tissue harvested included; blood, heart, muscle, lung, kidney, pancreas, spleen, liver, skin, brain, thyroid, stomach and EMT-6 tumor. Tissues were weighed and counted on an automatic gamma counter as previously described. All animal experiments were conducted under IACUC-approved protocols compliant with University of Pennsylvania guidelines for the care and use of research animals.

Q: With `COc1cc2c(cc1OC)CN(CCCCNC(=O)c1cc(I)cc(OC)c1OC)CC2` [iodinated sigma-2 ligand standard, 5-iodo-N-(4-(6,7-dimethoxy-3,4-dihydroisoquinolin-2(1H)-yl)butyl)-2,3-dimethoxybenzamide] as the molecule, how does the tumor uptake [1] read?
A: Its tumor uptake is 2 % ID/g.

Q: What does the source list for `COc1cc2c(cc1OC)CN(CCCCNC(=O)c1cc([211At])cc(OC)c1OC)CC2` [^211At—N-(6,7-dimethoxy-3,4-dihydroisoquinolin-2(1H)-yl)butyl)-2,3-dimethoxybenzamide]?
A: reduction in total binding through the addition of the standard (sigma-2 receptor; +100 μM non-radioactive standard): 80%; time of 50% maximal binding (T1/2) (sigma-2 receptor; one-phase association): 12.51 min; Decay corrected biodistribution, Blood ([2]; 5 min after i.v.): 4.06 ± 0.19 % ID/g; Decay corrected biodistribution, Blood ([2]; 1 h after i.v.): 2.12 ± 0.15 % ID/g; Decay corrected biodistribution, Blood ([2]; 2 h after i.v.): 2.43 ± 0.82 % ID/g; Decay corrected biodistribution, Blood ([2]; 4 h after i.v.): 1.64 ± 0.11 % ID/g; Decay corrected biodistribution, Blood ([2]; 8 h after i.v.): 1.82 ± 0.10 % ID/g; Decay corrected biodistribution, Blood ([2]; 24 h after i.v.): 0.44 ± 0.10 % ID/g; Decay corrected biodistribution, Brain ([2]; 5 min after i.v.): 1.95 ± 0.14 % ID/g; Decay corrected biodistribution, Brain ([2]; 1 h after i.v.): 0.46 ± 0.08 % ID/g; Decay corrected biodistribution, Brain ([2]; 2 h after i.v.): 0.39 ± 0.01 % ID/g; Decay corrected biodistribution, Brain ([2]; 4 h after i.v.): 0.21 ± 0.02 % ID/g; Decay corrected biodistribution, Brain ([2]; 8 h after i.v.): 0.25 ± 0.02 % ID/g; Decay corrected biodistribution, Brain ([2]; 24 h after i.v.): 0.07 ± 0.02 % ID/g; retention of radioactivity in the tumor, time post administration ([2]; EMT-6 tumor): 1 to 8 h; Decay corrected biodistribution, Tumor ([2]; EMT-6 tumor, 5 min after i.v.): 0.74 ± 0.07 % ID/g; Decay corrected biodistribution, Tumor ([2]; EMT-6 tumor, 1 h after i.v.): 4.40 ± 0.15 % ID/g; Decay corrected biodistribution, Tumor ([2]; EMT-6 tumor, 2 h after i.v.): 4.93 ± 0.78 % ID/g; Decay corrected biodistribution, Tumor ([2]; EMT-6 tumor, 4 h after i.v.): 5.05 ± 0.68 % ID/g; Decay corrected biodistribution, Tumor ([2]; EMT-6 tumor, 8 h after i.v.): 5.11 ± 0.09 % ID/g; Decay corrected biodistribution, Tumor ([2]; EMT-6 tumor, 24 h after i.v.): 1.34 ± 0.37 % ID/g; Tumor accumulation ([2]; EMT-6 tumor, from 1 h to at least 8 h): above 4 % ID/g; Decay corrected biodistribution, Heart ([2]; 5 min after i.v.): 10.2 ± 0.82 % ID/g; Decay corrected biodistribution, Heart ([2]; 1 h after i.v.): 5.16 ± 1.21 % ID/g; Decay corrected biodistribution, Heart ([2]; 2 h after i.v.): 4.70 ± 0.31 % ID/g; Decay corrected biodistribution, Heart ([2]; 4 h after i.v.): 3.54 ± 0.17 % ID/g; Decay corrected biodistribution, Heart ([2]; 8 h after i.v.): 4.01 ± 0.29 % ID/g; Decay corrected biodistribution, Heart ([2]; 24 h after i.v.): 1.14 ± 0.27 % ID/g; Decay corrected biodistribution, Kidney ([2]; 5 min after i.v.): 47.7 % ID/g and 47.7 ± 2.32 % ID/g; Decay corrected biodistribution, Kidney ([2]; 1 h after i.v.): 5.83 % ID/g and 5.83 ± 0.53 % ID/g; Decay corrected biodistribution, Kidney ([2]; 2 h after i.v.): 5.59 ± 0.35 % ID/g; Decay corrected biodistribution, Kidney ([2]; 4 h after i.v.): 2.97 ± 0.13 % ID/g; Decay corrected biodistribution, Kidney ([2]; 8 h after i.v.): 3.24 ± 0.21 % ID/g; Decay corrected biodistribution, Kidney ([2]; 24 h after i.v.): 1.05 ± 0.23 % ID/g; Decay corrected biodistribution, Liver ([2]; 5 min after i.v.): 18.1 ± 2.11 % ID/g; Decay corrected biodistribution, Liver ([2]; 1 h after i.v.): 6.39 ± 3.27 % ID/g; Decay corrected biodistribution, Liver ([2]; 2 h after i.v.): 4.63 ± 1.01 % ID/g; Decay corrected biodistribution, Liver ([2]; 4 h after i.v.): 1.87 ± 0.17 % ID/g; Decay corrected biodistribution, Liver ([2]; 8 h after i.v.): 1.86 ± 0.19 % ID/g; Decay corrected biodistribution, Liver ([2]; 24 h after i.v.): 0.59 ± 0.20 % ID/g; Decay corrected biodistribution, Lung ([2]; 5 min after i.v.): 20.2 ± 1.39 % ID/g; Decay corrected biodistribution, Lung ([2]; 1 h after i.v.): 7.14 ± 1.03 % ID/g; Decay corrected biodistribution, Lung ([2]; 2 h after i.v.): 6.42 ± 0.39 % ID/g; Decay corrected biodistribution, Lung ([2]; 4 h after i.v.): 5.74 ± 0.53 % ID/g; Decay corrected biodistribution, Lung ([2]; 8 h after i.v.): 6.23 ± 0.57 % ID/g; Decay corrected biodistribution, Lung ([2]; 24 h after i.v.): 2.21 ± 0.40 % ID/g; Decay corrected biodistribution, Muscle ([2]; 5 min after i.v.): 0.69 ± 0.16 % ID/g; Decay corrected biodistribution, Muscle ([2]; 1 h after i.v.): 1.24 ± 0.18 % ID/g; Decay corrected biodistribution, Muscle ([2]; 2 h after i.v.): 1.15 ± 0.07 % ID/g; Decay corrected biodistribution, Muscle ([2]; 4 h after i.v.): 0.56 ± 0.03 % ID/g; Decay corrected biodistribution, Muscle ([2]; 8 h after i.v.): 0.61 ± 0.04 % ID/g; Decay corrected biodistribution, Muscle ([2]; 24 h after i.v.): 0.19 ± 0.01 % ID/g; Decay corrected biodistribution, Pancreas ([2]; 5 min after i.v.): 8.81 ± 1.21 % ID/g; Decay corrected biodistribution, Pancreas ([2]; 1 h after i.v.): 18.1 ± 1.60 % ID/g; Decay corrected biodistribution, Pancreas ([2]; 2 h after i.v.): 18.0 ± 1.65 % ID/g; Decay corrected biodistribution, Pancreas ([2]; 4 h after i.v.): 26.3 ± 2.11 % ID/g; Decay corrected biodistribution, Pancreas ([2]; 8 h after i.v.): 21.1 ± 2.35 % ID/g; Decay corrected biodistribution, Pancreas ([2]; 24 h after i.v.): 5.78 ± 0.89 % ID/g; Decay corrected biodistribution, Skin ([2]; 5 min after i.v.): 0.58 ± 0.05 % ID/g; Decay corrected biodistribution, Skin ([2]; 1 h after i.v.): 2.30 ± 0.23 % ID/g; Decay corrected biodistribution, Skin ([2]; 2 h after i.v.): 2.66 ± 0.30 % ID/g; Decay corrected biodistribution, Skin ([2]; 4 h after i.v.): 1.79 ± 0.15 % ID/g; Decay corrected biodistribution, Skin ([2]; 8 h after i.v.): 2.10 ± 0.42 % ID/g; Decay corrected biodistribution, Skin ([2]; 24 h after i.v.): 0.85 ± 0.08 % ID/g; Decay corrected biodistribution, Spleen ([2]; 5 min after i.v.): 8.41 ± 2.67 % ID/g; Decay corrected biodistribution, Spleen ([2]; 1 h after i.v.): 13.2 ± 2.76 % ID/g; Decay corrected biodistribution, Spleen ([2]; 2 h after i.v.): 12.0 ± 1.47 % ID/g; Decay corrected biodistribution, Spleen ([2]; 4 h after i.v.): 7.59 ± 0.49 % ID/g; Decay corrected biodistribution, Spleen ([2]; 8 h after i.v.): 7.49 ± 1.38 % ID/g; Decay corrected biodistribution, Spleen ([2]; 24 h after i.v.): 2.14 ± 1.02 % ID/g; Decay corrected biodistribution, Stomach ([2]; 5 min after i.v.): 5.87 ± 1.12 % ID/g; Decay corrected biodistribution, Stomach ([2]; 1 h after i.v.): 15.9 ± 2.53 % ID/g; Decay corrected biodistribution, Stomach ([2]; 2 h after i.v.): 16.3 ± 2.29 % ID/g; Decay corrected biodistribution, Stomach ([2]; 4 h after i.v.): 19.7 ± 1.79 % ID/g; Decay corrected biodistribution, Stomach ([2]; 8 h after i.v.): 28.2 ± 7.21 % ID/g; Decay corrected biodistribution, Stomach ([2]; 24 h after i.v.): 9.88 ± 1.62 % ID/g; Decay corrected biodistribution, Thyroid ([2]; 5 min after i.v.): 5.87 ± 0.85 % ID/g; Decay corrected biodistribution, Thyroid ([2]; 1 h after i.v.): 11.6 ± 1.01 % ID/g; Decay corrected biodistribution, Thyroid ([2]; 2 h after i.v.): 18.3 ± 6.12 % ID/g; Decay corrected biodistribution, Thyroid ([2]; 4 h after i.v.): 14.0 ± 4.26 % ID/g; Decay corrected biodistribution, Thyroid ([2]; 8 h after i.v.): 13.3 ± 2.96 % ID/g; Decay corrected biodistribution, Thyroid ([2]; 24 h after i.v.): 4.87 ± 1.15 % ID/g; maximal tumor to muscle ratio ([2]; at 4 h): 9.02
